Here are results for one molecule from patent US11261210B2, “Glycosylated antitumor ether lipids as novel cancer stem cell cytotoxic agents” (UNIVERSITY OF MANITOBA, priority 2012, dated 2022).

One data set has as its system cancer stem cells. The data set is described as follows: Tumorsphere formation by freshly sorted cancer stem cells. The class given is cell-based, human. Conditions: added to freshly sorted cancer stem cells, 10 μM and above, 6 days. An excerpt: Breast cancer stem cell enriched cell population was obtained by staining breast cancer cell lines BT-474 and JIMT-1 for aldehyde dehydrogenase 1 (ALDH1) using the assay kit from Stem Cell Technologies (Vancouver BC, Canada) according to the instructions of the manufacturer with the appropriate controls. BT-474 is a ductal carcinoma cell line (Lasfargues E Y, Coutinho W G, Dion A S (1979) A human breast tumor cell line (BT-474) that supports mouse mammary tumor virus replication. In Vitro 15, 723-729) while JIMT-1 is a carcinoma cell line that is resistant to herceptin (Tanner M, Kapanen A J, Junttila T, Raheem O, Grenman S, Elo J, Elenius K, Isola J (2004). Characterization of a novel cell line established from a patient with herceptin-resistant breast cancer. Mol Cancer Ther 3, 1585-1592). Following the staining, the cells stained for ALDH1 were sorted from the bulk population by flow cytometry on a 4 laser MoFloXPP high speed/pressure cell sorter. The cells were pelleted by centrifugation, resuspended in supplemented Mammocult medium (Stem Cell Technologies) and dispersed into ultra-low adhesive 6-well plates or 35 mm dishes for 7 days to allow the formation of spheroids (mammospheres). After 7 days, the spheres were separated from single cells (dead non-stem cells) by sieving the contents of the well through a […] nylon cell strainer (BD Falcon). The spheres retained in the sieve are washed with Hanks buffer and subsequently trypsinised to obtain a single cell suspension of cancer stem cells. The cell numbers were determined with a Coulter ZM counter and the cells were seeded into the appropriate low adhesion tissue culture ware for various studies.
AEL solutions in ethanol were diluted into supplemented mammocult medium generally at twice the desired final concentration. A volume equal to that in the wells was added to dilute the drug to the desired concentration in each well. Subsequently any further addition of drug to the wells, utilized AEL solution prepared at the desired concentration. […]

Data set [1] concerns JIMT1 stem cell tumorspheres. Description: Viability of JIMT1 stem cell tumorspheres (MTS assay). Conditions: 6 days. The class given is cell-based, human. On the procedure: FIG. 8. Effect of β-O-Gln, α-O-Gln, β-C-Gln and ET-18-OCH3 on the viability of JIMT1 stem cell tumorspheres. BT-474 cancer stem cells were grown for 7 days in ultra low adhesion 6-well plates. The tumorspheres formed were harvested, trypsinised and cell numbers were determined. Equal numbers of cells were dispersed into 48-well non-treated plates in mammocult medium and incubation was under static conditions. Wells with only medium but no cells were treated in an identical manner to serve as blanks. After spheres were formed, O-Gln, C-Gln or ET-18-OCH3 (0, 10, 20, 30 μM) were added and incubation was for a total of 6 days. At the end of the incubation, the MTS reagent was added to each well and the plates were mixed in a nutator in a 5% CO2 incubator for 4 h. The absorbance of each well was read at 470 nm. The results are the means±standard deviation of 4 independent determinations.
Cell viability assay: Cell viability was determined by the Cell Titre 96 Aqueous One solution proliferation assay ((MTS assay; Promega) according to the instructions of the manufacturer.
The viability of cells in spheroids incubated with 20 or 30 μM ET-18-OCH3 was between 30-40% of controls.
For orientation: Tetrazolium assays rely on reduction of a dye to a coloured formazan, in cell work by metabolically active cells.

The conditions of data set [2]: cells with a functioning apoptotic pathway; cited from earlier work.
The next data set deals with BT-474 cancer stem cells. The data set is described as follows: BT-474 cancer stem cell spheroid formation. The class given is cell-based, human. Conditions: BT474 cancer stem cells, FIG. 1B. The method, then:
FIG. 1. A. Effect of β-C-Gln (β-AC1) on BT-474 cancer stem cell spheroid formation. BT-474 cancer stem cells were obtained by staining BT474 cells for ALDH1 and sorting the stained from unstained cells by flow cytometry. The ALDH1 stained cells were grown in ultra-low adhesion 6-well plates in mammocult medium for 7 days. The spheroids were isolated and trypsinised to generate single cells. The cells were then seeded for 2 days in ultra-low adhesion 6-well plates, and subsequently incubated in the absence or presence of C-Gln for up to 12 days. The media was replenished after 6 days. B. Effect of β-O-Gln (β-AO1), α-O-Gln (α-AO1), or ET-18-OCH3 on BT-474 cancer stem cell spheroid formation.
Breast cancer stem cell enriched cell population was obtained by staining breast cancer cell lines BT-474 and JIMT-1 for aldehyde dehydrogenase 1 (ALDH1) using the assay kit from Stem Cell Technologies (Vancouver BC, Canada) according to the instructions of the manufacturer with the appropriate controls. […] The cell numbers were determined with a Coulter ZM counter and the cells were seeded into the appropriate low adhesion tissue culture ware for various studies. […]

In data set [3] the test system is JIMT-1 stem cell spheroids. The data set is described as follows: Morphology of JIMT-1 stem cell spheroids. The class given is cell-based, human. The method, then:
FIG. 7. A. Effect of β-O-Gln, β-C-Gln or ET-18-OCH3 on morphology of JIMT-1 stem cell spheroids. B. Effect of β-O-Gln, α-O-Gln or ET-18-OCH3 on morphology of JIMT-1 stem cell spheroids. JIMT-1 cancer stem cells were grown for 7 days in ultra low adhesion 6 well plates. The tumorspheres formed were harvested, trypsinised and cell numbers were determined. Equal numbers of cells were dispersed into 48-well non-treated plates in mammocult medium and incubated in a CO2 incubator under static conditions. After spheres were formed, O-Gln, C-Gln or ET-18-OCH3 were added (0, 10, 20 and 30 μM) and incubation was for a total of 6 days with media supplementation after 3 days. Images for FIG. 7A were taken at day 0 and after 72 h following addition of the compounds. Images for FIG. 7B were taken after 6 days incubation with the compounds.
The above studies were repeated with JIMT-1 spheroids.

The test system of another data set is BT474 cancer stem cells. Description: Trypan blue dye exclusion viability of BT474 cancer stem cells. Format: cell-based, human. Conditions: BT474 cancer stem cells incubated with compound. On the procedure:
Trypan blue dye exclusion assay using the TC10 automated cell counter (BioRad) was also used for some studies.
We investigated the effects of the GAELs and the ALPET-18-OCH3 on the ability of the cancer stem cells to form tumorspheres. […] This was a concentration dependent event and at concentrations greater than 10 μM spheroid formation was completely disrupted.

As to `CCCCCCCCCCCCCCCCOC[C@H](CO[C@@H]1O[C@H](CO)[C@@H](O)[C@H](O)[C@H]1N)OC` [β-O-Gln, 1-O-hexadecyl-2-O-methyl-3-O-(2′-amino-2′-deoxy-β-D-glucopyranosyl)-sn-glycerol], the spheroid formation entry in the data set on cancer stem cells and in the data set on BT-474 cancer stem cells was “unable to form spheroids” throughout. Also, the loss of viability in data set [1] (10 μM) is reported as 90%; in data set [1] (20 or 30 μM) it was “Complete loss of viability”. Also, the “caspase 3 or 9 activation during cell death” value in data set [2] is “without activation of caspase 3 or 9”. The “spheroid morphology and compactness” value in data set [3] (10-30 μM, after 3 days, FIG. 7A) is “profound effect on the morphology and compactness”. Further, in data set [3] (6 days, FIG. 7B), the spheroid integrity result is “complete disintegration of the spheroids”. The “viability (trypan dye exclusion)” value with BT474 cancer stem cells is on record as “not viable”.
